assay: Inhibition of C-south african HIV-1 protease assessed as hydrolysis of the chromogenic peptide substrate Lys-Ala-Arg-Val-Nle-p-nitro-Phe-Glu-Ala-Nle-NH2; design: species or system Human immunodeficiency virus 1

SMILES | IC50
CC[C@H](C)[C@@H]1NC(=O)[C@H](C)NC(=O)C[C@@H](C2O[C@@H]3OC(C)(C)O[C@@H]3[C@H]2O)NC(=O)[C@H](CO)NC1=O (some centres not stated) | 3000 nM
CC[C@H](C)[C@H](NC(=O)[C@H](C)NC(=O)[C@H](CCC(=O)OCc1ccccc1)NC(=O)C[C@H](N)C1O[C@@H]2OC(C)(C)O[C@@H]2[C@H]1OCc1ccccc1)C(=O)O (some centres not stated) | 3500 nM
CC[C@H](C)[C@@H]1NC(=O)[C@H](C)NC(=O)[C@H](CCC(=O)O)NC(=O)C[C@@H](C2O[C@@H]3OC(C)(C)O[C@@H]3[C@H]2O)NC1=O (some centres not stated) | 2620 nM
CC(C)[C@H](NC(=O)[C@H](Cc1ccccc1)NC(=O)C[C@H](NCc1ccccc1)C1O[C@@H]2OC(C)(C)O[C@@H]2[C@H]1OCc1ccccc1)C(=O)N[C@@H](C)C(=O)O (some centres not stated) | 2380 nM
CC[C@H](C)[C@H](NC(=O)[C@H](C)NC(=O)[C@H](CCC(=O)O)NC(=O)C[C@H](N)C1O[C@@H]2OC(C)(C)O[C@@H]2[C@H]1O)C(=O)O (some centres not stated) | 3050 nM
CC[C@H](C)[C@H](NC(=O)[C@H](C)NC(=O)C[C@H](N)C1O[C@@H]2OC(C)(C)O[C@@H]2[C@H]1O)C(=O)N[C@@H](CO)C(=O)O (some centres not stated) | 1500 nM
CC[C@H](C)[C@@H]1NC(=O)[C@H](C)NC(=O)C[C@@H](C2O[C@@H]3OC(C)(C)O[C@@H]3[C@H]2OCc2ccccc2)NC(=O)[C@H](COCc2ccccc2)NC1=O (some centres not stated) | > 10000 nM
CC(C)[C@H](NC(=O)[C@H](Cc1ccccc1)NC(=O)C[C@H](N)C1O[C@@H]2OC(C)(C)O[C@@H]2[C@H]1OCc1ccccc1)C(=O)N[C@@H](C)C(=O)O (some centres not stated) | 1340 nM
CC(C)[C@@H]1NC(=O)[C@H](Cc2ccccc2)NC(=O)C[C@@H](C2O[C@@H]3OC(C)(C)O[C@@H]3[C@H]2OCc2ccccc2)NC(=O)[C@H](C)NC1=O (some centres not stated) | 6500 nM
CC[C@H](C)[C@H](NC(=O)[C@H](C)NC(=O)C[C@H](NCc1ccccc1)C1O[C@@H]2OC(C)(C)O[C@@H]2[C@H]1OCc1ccccc1)C(=O)N[C@@H](COCc1ccccc1)C(=O)O (some centres not stated) | > 10000 nM

The next lines start with the values.

IC50 | SMILES
> 10000 nM | CC[C@H](C)[C@H](NC(=O)[C@H](C)NC(=O)C[C@H](N)C1O[C@@H]2OC(C)(C)O[C@@H]2[C@H]1OCc1ccccc1)C(=O)N[C@@H](COCc1ccccc1)C(=O)O (some centres not stated)
4 nM | COC(=O)N[C@H](C(=O)N[C@@H](Cc1ccccc1)[C@@H](O)CN(Cc1ccc(-c2ccccn2)cc1)NC(=O)[C@@H](NC(=O)OC)C(C)(C)C)C(C)(C)C [ATAZANAVIR]
5000 nM | CC[C@H](C)[C@H](NC(=O)[C@H](C)NC(=O)[C@H](CCC(=O)OCc1ccccc1)NC(=O)C[C@H](NCc1ccccc1)C1O[C@@H]2OC(C)(C)O[C@@H]2[C@H]1OCc1ccccc1)C(=O)O (some centres not stated)
1100 nM | CC(C)[C@H](NC(=O)[C@H](Cc1ccccc1)NC(=O)C[C@H](N)C1O[C@@H]2OC(C)(C)O[C@@H]2[C@H]1O)C(=O)N[C@@H](C)C(=O)O (some centres not stated)
25 nM | Cc1cccc(C)c1OCC(=O)N[C@@H](Cc1ccccc1)[C@@H](O)C[C@H](Cc1ccccc1)NC(=O)[C@H](C(C)C)N1CCCNC1=O [LOPINAVIR]
961 nM | CC(C)[C@@H]1NC(=O)[C@H](Cc2ccccc2)NC(=O)C[C@@H](C2O[C@@H]3OC(C)(C)O[C@@H]3[C@H]2O)NC(=O)[C@H](C)NC1=O (some centres not stated)
2500 nM | CC[C@H](C)[C@@H]1NC(=O)[C@H](C)NC(=O)[C@H](CCC(=O)OCc2ccccc2)NC(=O)C[C@@H](C2O[C@@H]3OC(C)(C)O[C@@H]3[C@H]2OCc2ccccc2)NC1=O (some centres not stated)

— ChEMBL document CHEMBL2311461, “Linear and cyclic glycopeptide as HIV protease inhibitors” (Eur J Med Chem, 2013)
